Measured values taken from ChEMBL document CHEMBL1140388, “Privileged structure-based ligands for melanocortin receptors-tetrahydroquinolines, indoles, and aminotetralines” (Bioorg Med Chem Lett, 2005).
pKi: −log10 of the molar value.

Experiments:
Melanocortin receptor 4 = Melanocortin receptor 4 (Homo sapiens, UniProt P32245); experiment: Inhibition of [125I]-NDP MSH binding towards human melanocortin 4 receptor
[1] = target: Melanocortin receptor (M1 and M4) (Homo sapiens) (UniProt P32245+Q01726); experiment: Binding selectivity across hMC 4 and hMC 1 by determining the competitive inhibition of [125 I]NDP MSH binding; format: protein assay
Melanocortin receptor 3 = Melanocortin receptor 3 (Homo sapiens, UniProt P41968); experiment: Inhibition of [125I]-NDP MSH binding towards human melanocortin 3 receptor
[2] = target: Melanocortin receptor (M3 and M4) (Homo sapiens) (UniProt P32245+P41968); experiment: Binding selectivity across hMC 4 and hMC 3 by determining the competitive inhibition of [125 I]NDP MSH binding; format: protein assay
[3] = target: Melanocyte-stimulating hormone receptor (Homo sapiens, UniProt Q01726); experiment: Inhibition of [125I]-NDP MSH binding towards human melanocortin 1 receptor
Melanocortin receptor 5 = Melanocortin receptor 5 (Homo sapiens, UniProt P33032); experiment: Inhibition of [125I]-NDP MSH binding towards human melanocortin 5 receptor
[4] = target: Melanocortin receptor (M4 and M5) (Homo sapiens) (UniProt P32245+P33032); experiment: Binding selectivity across hMC 4 and hMC 5 by determining the competitive inhibition of [125 I]NDP MSH binding; format: protein assay
Chain of Melanocortin receptor (M4 and M5) (Homo sapiens) (P32245 whole entry, looked up): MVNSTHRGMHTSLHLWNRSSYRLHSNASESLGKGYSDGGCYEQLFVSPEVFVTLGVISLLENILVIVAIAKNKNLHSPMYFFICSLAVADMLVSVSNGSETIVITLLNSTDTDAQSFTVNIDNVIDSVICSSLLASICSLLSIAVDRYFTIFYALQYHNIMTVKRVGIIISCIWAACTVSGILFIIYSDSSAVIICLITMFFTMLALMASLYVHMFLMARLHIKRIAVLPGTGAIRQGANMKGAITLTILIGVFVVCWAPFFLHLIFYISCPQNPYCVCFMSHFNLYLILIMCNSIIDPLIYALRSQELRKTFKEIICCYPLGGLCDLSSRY
Chain of Melanocortin receptor (M4 and M5) (Homo sapiens) (P33032 whole entry, looked up): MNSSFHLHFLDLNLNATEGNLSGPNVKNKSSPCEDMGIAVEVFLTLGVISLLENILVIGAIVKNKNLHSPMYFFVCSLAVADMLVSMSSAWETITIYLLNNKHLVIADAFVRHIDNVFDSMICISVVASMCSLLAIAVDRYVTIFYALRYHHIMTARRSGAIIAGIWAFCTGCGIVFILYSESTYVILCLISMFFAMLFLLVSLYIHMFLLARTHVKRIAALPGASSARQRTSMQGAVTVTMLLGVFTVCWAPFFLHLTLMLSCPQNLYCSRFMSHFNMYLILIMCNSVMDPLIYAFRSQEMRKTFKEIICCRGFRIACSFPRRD

Chain of Melanocortin receptor 4 (P32245 whole entry): as the sequence (P32245 whole entry, looked up) above
Chain of Melanocortin receptor 5 (P33032 whole entry): as the sequence (P33032 whole entry, looked up) above
Chain of Melanocortin receptor 3 (P41968 whole entry): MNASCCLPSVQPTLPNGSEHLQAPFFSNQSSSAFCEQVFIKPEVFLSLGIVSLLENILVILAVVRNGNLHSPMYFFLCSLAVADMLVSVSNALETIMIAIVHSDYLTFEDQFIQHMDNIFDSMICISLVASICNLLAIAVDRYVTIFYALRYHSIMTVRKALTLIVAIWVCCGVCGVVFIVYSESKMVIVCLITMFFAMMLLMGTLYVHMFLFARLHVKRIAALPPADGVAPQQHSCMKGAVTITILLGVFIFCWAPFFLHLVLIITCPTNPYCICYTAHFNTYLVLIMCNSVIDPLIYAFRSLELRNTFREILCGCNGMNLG
Chain of Melanocyte-stimulating hormone receptor (Q01726 whole entry): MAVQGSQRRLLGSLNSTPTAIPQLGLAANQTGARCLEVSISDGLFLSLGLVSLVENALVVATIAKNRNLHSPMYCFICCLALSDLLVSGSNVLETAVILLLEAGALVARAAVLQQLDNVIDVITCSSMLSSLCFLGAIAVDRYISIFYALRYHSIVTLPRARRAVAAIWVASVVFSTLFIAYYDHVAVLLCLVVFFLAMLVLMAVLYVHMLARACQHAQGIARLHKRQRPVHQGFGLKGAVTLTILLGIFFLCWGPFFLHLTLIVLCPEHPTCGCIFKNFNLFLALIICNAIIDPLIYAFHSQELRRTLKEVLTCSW

Structure (SMILES)	pKi (Melanocortin receptor 4)	further results
CNC1CCc2cccc(N3CCN(C(=O)[C@@H](Cc4ccc(Cl)cc4)NC(=O)[C@H]4Cc5ccccc5CN4)CC3)c2C1 (stereo partly drawn)	6.82	–
CS(=O)(=O)N1CCCc2cccc(N3CCN(C(=O)C(Cc4ccc(Cl)cc4)NC(=O)[C@H]4Cc5ccccc5CN4)CC3)c21 (stereo partly drawn)	6.05	–
CCN1CCc2c(cccc2N2CCN(C(=O)[C@@H](Cc3ccc(Cl)cc3)NC(=O)[C@H]3Cc4ccccc4CN3)CC2)C1	6.15	–
NC1CCc2cccc(N3CCN(C(=O)[C@@H](Cc4ccc(Cl)cc4)NC(=O)[C@H]4Cc5ccccc5CN4)CC3)c2C1 (stereo partly drawn)	6.62	–
CCN1CCc2cccc(N3CCN(C(=O)[C@@H](Cc4ccc(Cl)cc4)NC(=O)[C@H]4Cc5ccccc5CN4)CC3)c2C1	6.72	–
CC(=O)N1CCc2cccc(N3CCN(C(=O)[C@@H](Cc4ccc(Cl)cc4)NC(=O)[C@H]4Cc5ccccc5CN4)CC3)c2C1	6.30	–
CCN(CC)C1CCc2cccc(N3CCN(C(=O)[C@@H](Cc4ccc(Cl)cc4)NC(=O)[C@H]4Cc5ccccc5CN4)CC3)c2C1 (stereo partly drawn)	6.77	–
O=C(N[C@H](Cc1ccc(Cl)cc1)C(=O)N1CCN(c2cccc3c2NCCC3)CC1)[C@H]1Cc2ccccc2CN1	5.80	–
CS(=O)(=O)N1CCc2cccc(N3CCN(C(=O)[C@@H](Cc4ccc(Cl)cc4)NC(=O)[C@H]4Cc5ccccc5CN4)CC3)c2C1	6.22	–
CS(=O)(=O)N1CCc2cccc(N3CCN(C(=O)C(Cc4ccc(Cl)cc4)NC(=O)[C@H]4Cc5ccccc5CN4)CC3)c21 (stereo partly drawn)	6.05	–
O=C(N[C@H](Cc1ccc(Cl)cc1)C(=O)N1CCN(c2cccc3c2CCCC3)CC1)[C@H]1Cc2ccccc2CN1	5.38	Binding selectivity [1]: 47; pKi (Melanocortin receptor 3): 5.92; Binding selectivity [2]: 181; pKi [3]: 5.52; pKi (Melanocortin receptor 5): 6.59; Binding selectivity [4]: 3.8
CN(C)C1CCc2cccc(N3CCN(C(=O)[C@@H](Cc4ccc(Cl)cc4)NC(=O)[C@H]4Cc5ccccc5CN4)CC3)c2C1 (stereo partly drawn)	7.15	Binding selectivity [1]: 72; pKi (Melanocortin receptor 3): 5.09; Binding selectivity [2]: 164; pKi [3]: 5.40; pKi (Melanocortin receptor 5): 6.55; Binding selectivity [4]: 5.6
CC(C)S(=O)(=O)N1CCc2cccc(N3CCN(C(=O)[C@@H](Cc4ccc(Cl)cc4)NC(=O)[C@H]4Cc5ccccc5CN4)CC3)c2C1	6.02	–
CC(=O)N1CCCc2cccc(N3CCN(C(=O)[C@@H](Cc4ccc(Cl)cc4)NC(=O)[C@H]4Cc5ccccc5CN4)CC3)c21	5.11	Binding selectivity [1]: 23; pKi (Melanocortin receptor 3): 6.30; Binding selectivity [2]: 0.6; pKi [3]: 4.70; pKi (Melanocortin receptor 5): 5.40; Binding selectivity [4]: 5
CN1CCc2cccc(N3CCN(C(=O)[C@@H](Cc4ccc(Cl)cc4)NC(=O)[C@H]4Cc5ccccc5CN4)CC3)c2C1	6.55	–
CN(C)[C@H]1CCc2cccc(N3CCN(C(=O)[C@@H](Cc4ccc(Cl)cc4)NC(=O)[C@H]4Cc5ccccc5CN4)CC3)c2C1	7.30	–
CN(C)[C@@H]1CCc2cccc(N3CCN(C(=O)[C@@H](Cc4ccc(Cl)cc4)NC(=O)[C@H]4Cc5ccccc5CN4)CC3)c2C1	7.10	–
O=C(N[C@H](Cc1ccc(Cl)cc1)C(=O)N1CCN(c2cccc3c2NCC3)CC1)[C@H]1Cc2ccccc2CN1	5.68	–
O=C(N[C@H](Cc1ccc(Cl)cc1)C(=O)N1CCN(c2cccc3cc[nH]c23)CC1)[C@H]1Cc2ccccc2CN1	5.32	–
CS(=O)(=O)N1CCc2c(cccc2N2CCN(C(=O)[C@@H](Cc3ccc(Cl)cc3)NC(=O)[C@H]3Cc4ccccc4CN3)CC2)C1	5.41	–
CN(C1CCc2cccc(N3CCN(C(=O)[C@@H](Cc4ccc(Cl)cc4)NC(=O)[C@H]4Cc5ccccc5CN4)CC3)c2C1)S(C)(=O)=O (stereo partly drawn)	6.28	–
O=C(N[C@H](Cc1ccc(Cl)cc1)C(=O)N1CCN(c2cccc3c2CN(S(=O)(=O)c2ccccc2)CC3)CC1)[C@H]1Cc2ccccc2CN1	5.60	Binding selectivity [1]: 23; pKi (Melanocortin receptor 3): 5.92; Binding selectivity [2]: 4; pKi [3]: 5.15; pKi (Melanocortin receptor 5): 6.15; Binding selectivity [4]: 2.6
CCCN(CCC)C1CCc2cccc(N3CCN(C(=O)[C@@H](Cc4ccc(Cl)cc4)NC(=O)[C@H]4Cc5ccccc5CN4)CC3)c2C1 (stereo partly drawn)	6.74	–
CC(=O)NC1CCc2cccc(N3CCN(C(=O)[C@@H](Cc4ccc(Cl)cc4)NC(=O)[C@H]4Cc5ccccc5CN4)CC3)c2C1 (stereo partly drawn)	6.39	–
